Assay results from patent EP3959993B1, “METHOD FOR SOLVENT FREE PRODUCTION OF AROMA CONCENTRATES” (Symrise AG, priority 2020, dated 2022).

Key:
[1] = theoretical solubility, values known in the literature; cited from earlier work
[2] = Second oil phase obtained by adding NaCl to the water phase (Example 4); type: physicochemical; details: after separating oil phases I and II
Experimental: Cross linked polystyrene was used as adsorbent material. The volume flux for loading the adsorbent was 300 ml/min.
The adsorbent was heated to 150 °C, the temperature of the applied water steam was 160 °C.
The water steam flux was 10 g/min and was applied for 100 min.
The oil and water phases were separated.
A second oil phase was separated and was collected.

[3] = Influence of the amount of NaCl on the distribution between oil phase and water phase (Example 5); type: physicochemical

**Q.** With `[Cl-].[K+]` [Potassium chloride] as the compound, how does the “Solubility in water (%)” value [1] read?
**A.** Its value is 34.7%.

**Q.** For `O=P([O-])([O-])OP(=O)([O-])OP(=O)([O-])[O-].[Na+].[Na+].[Na+].[Na+].[Na+]` [Triphosphate (Na)], which “Solubility in water (%)” value [1] is on record?
**A.** The value was 14.5%.

**Q.** With `CCCCCO` [pentanol] as the compound, how does the “Loss in the water phase” value [2] read?
**A.** Its value is 15,4%.

**Q.** And the “Distribution in [%] between oil phase and water phase after condensation: Oil phase” value ([3]; NaCl 0%)?
**A.** The value was 29.5%.

**Q.** And the “Distribution in [%] between oil phase and water phase after condensation: Water phase” value ([3]; NaCl 0%)?
**A.** The value was 70.5%.

**Q.** And the “Distribution in [%] between oil phase and water phase after condensation: Oil phase” value ([3]; NaCl 27.8 %)?
**A.** The value was 56.8%.

**Q.** And the “Distribution in [%] between oil phase and water phase after condensation: Water phase” value ([3]; NaCl 27.8 %)?
**A.** The value was 43.2%.

**Q.** And the “Distribution in [%] between oil phase and water phase after condensation: Oil phase” value ([3]; NaCl 41.67%)?
**A.** Its value is 67.2%.

**Q.** What about the “Distribution in [%] between oil phase and water phase after condensation: Water phase” value ([3]; NaCl 41.67%) of the same compound?
**A.** The value was 32.8%.

**Q.** What about the “Distribution in [%] between oil phase and water phase after condensation: Oil phase” value ([3]; NaCl 55.56 %) of the same compound?
**A.** Its value is 73.8%.

**Q.** What about the “Distribution in [%] between oil phase and water phase after condensation: Water phase” value ([3]; NaCl 55.56 %) of the same compound?
**A.** The value was 26.2%.

**Q.** What about the “Distribution in [%] between oil phase and water phase after condensation: Oil phase” value ([3]; NaCl 69.44 %) of the same compound?
**A.** Its value is 79.8%.

**Q.** What about the “Distribution in [%] between oil phase and water phase after condensation: Water phase” value ([3]; NaCl 69.44 %) of the same compound?
**A.** Its value is 20.2%.

**Q.** What about the “Distribution in [%] between oil phase and water phase after condensation: Oil phase” value ([3]; NaCl 83.33 %) of the same compound?
**A.** The value was 84.6%.

**Q.** And the “Distribution in [%] between oil phase and water phase after condensation: Water phase” value ([3]; NaCl 83.33 %)?
**A.** The value was 15.4%.

**Q.** Which “Loss in the water phase” value [2] does the source give for `CC/C=C/CCO` [trans-3-hexenol] here?
**A.** Its value is 2,7%.

**Q.** What about the “Distribution in [%] between oil phase and water phase after condensation: Oil phase” value ([3]; NaCl 0%) of the same compound?
**A.** The value was 51.8%.

**Q.** And the “Distribution in [%] between oil phase and water phase after condensation: Water phase” value ([3]; NaCl 0%)?
**A.** The value was 48.2%.

**Q.** What about the “Distribution in [%] between oil phase and water phase after condensation: Oil phase” value ([3]; NaCl 27.8 %) of the same compound?
**A.** Its value is 84%.

**Q.** What about the “Distribution in [%] between oil phase and water phase after condensation: Water phase” value ([3]; NaCl 27.8 %) of the same compound?
**A.** Its value is 16%.

**Q.** And the “Distribution in [%] between oil phase and water phase after condensation: Oil phase” value ([3]; NaCl 41.67%)?
**A.** The value was 90.5%.

**Q.** And the “Distribution in [%] between oil phase and water phase after condensation: Water phase” value ([3]; NaCl 41.67%)?
**A.** The value was 9.5%.

**Q.** And the “Distribution in [%] between oil phase and water phase after condensation: Oil phase” value ([3]; NaCl 55.56 %)?
**A.** The value was 93.6%.

**Q.** What about the “Distribution in [%] between oil phase and water phase after condensation: Water phase” value ([3]; NaCl 55.56 %) of the same compound?
**A.** The value was 6.4%.

**Q.** What about the “Distribution in [%] between oil phase and water phase after condensation: Oil phase” value ([3]; NaCl 69.44 %) of the same compound?
**A.** The value was 96.2%.

**Q.** And the “Distribution in [%] between oil phase and water phase after condensation: Water phase” value ([3]; NaCl 69.44 %)?
**A.** The value was 3.8%.

**Q.** What about the “Distribution in [%] between oil phase and water phase after condensation: Oil phase” value ([3]; NaCl 83.33 %) of the same compound?
**A.** Its value is 97.3%.

**Q.** And the “Distribution in [%] between oil phase and water phase after condensation: Water phase” value ([3]; NaCl 83.33 %)?
**A.** Its value is 2.7%.
